# In patent publication US20250108100A1, “C-TERMINAL FRAGMENT OF APOLIPOPROTEIN E AND APPLICATION THEREOF IN INHIBITING y-SECRETASE ACTIVITY” (SYNPHATEC (SHANGHAI) BIOPHARMACEUTICAL TECHNOLOGY CO., LTD., priority 2022, published 2025):
# “Also recorded” adds a separate entry of the source.
# Assays:
# [1] = test system: human APP and β-secretase co-expressed in HEK 293T cells; assay: HEK 293T cells co-expressing APP and β-secretase (BACE1): Aβ ELISA and β-CTF Western blot; assay type: cell-based; conditions: APP and β-secretase co-expressed, ELISA, vs GFP control
# Description: The experiment was performed according to the standard procedure in the ELISA analysis kit of Invitrogen Company. • a) The target protein was expressed in HEK 293T cell line. Cells were subcultured one day before transfection, and transfection was performed when the degree of cell adhesion reached 70%-80%. The transfection reagent was lipofectamine2000 (ThermoFisher). • b) 4-6 hours post transfection, medium were replaced with fresh cell culture medium. • c) 36-48 hours post transfection, the cell culture medium was collected, and then the ELISA process was performed or the cell culture medium was frozen in a −80° C. refrigerator. • d) 50 μl of standard samples and experimental samples were added to each well of the 96-well plate. • e) 50 μl of human-derived Aβ40 or Aβ42 or mouse-derived Aβ40 detection antibody was added to each well of the 96-well plate. • f) The above samples were shaken gently and placed at room temperature for 3 hours. • g) The liquid in the well were removed, and the plate was washed 4 times with 1× wash buffer. • h) 100 μl of the buffer containing 1× anti-Rabbit IgG HRP was added. • i) The plate was shaken gently and placed at room temperature for […]. • j) The liquid in the well were removed, and the well was washed 4 times with 1× wash buffer. • k) 100 μl of Stabilized Chromogen was added to each well, and the plate was placed in the dark for 30 minutes at room temperature. • l) 100 μl of Stop Solution was added to each well. • m) The absorbance at 450 nm was measured with a microplate reader. 2.4 qRT-PCR
# 48 hours after transfection of HEK 293T cells and N2A cells, or 4.5 days after lentivirus infection of neurons, media and lysates were collected. Aβ40 and Aβ42 in the culture medium and cell lysates were detected by an Aβ ELISA kit as indicated in the protocol. (Invitrogen Technology; KHB3481 for human Aβ40, KHB3441 for human Aβ42 and KMB3481 for mouse Aβ40).
# Data were analyzed by GraphPad Prism software (v6) using unpaired, paired, or one-sample t-tests. Aβ40 and Aβ42 levels were normalized to the corresponding GFP controls. α-CTF levels were normalized to FL-APP and corresponding GFP controls. All data are represented as mean±SEM. Statistical significance was defined as p<0.05. One, two, three and four stars (*) in the graph indicate p-values <0.05, <0.01, <0.001 and <0.0001, respectively.
# [2] = test system: primary cultured mouse hippocampal or cortical neurons; assay: Endogenous Aβ40 in primary cultured mouse cortical or hippocampal neurons (lentivirus, ELISA); assay type: cell-based; conditions: primary cultured mouse neurons; lentivirus; vs GFP control
# Description: Primary cultured neurons were derived from the cortex or hippocampus of 16-day embryonic mice. The mouse cortex or hippocampus was obtained under a stereoscope, and was digested at 37° C. for 10 minutes with 20 U/ml papain (Worthington Company). After digestion, the neurons that exist in single-cell form were seeded with 100,000 neurons per well (24-well plate); the neurons were cultured in the neuron culture medium (Neurobasal medium; ThermoFisher Company) containing 2% B27 (ThermoFisher Company) and 1% penicillin/streptomycin; the fresh culture medium was changed once a week.
# The experiment was performed according to the standard procedure in the ELISA analysis kit of Invitrogen Company. • a) The target protein was expressed in HEK 293T cell line. Cells were subcultured one day before transfection, and transfection was performed when the degree of cell adhesion reached 70%-80%. […]
# 48 hours after transfection of HEK 293T cells and N2A cells, or 4.5 days after lentivirus infection of neurons, media and lysates were collected. Aβ40 and Aβ42 in the culture medium and cell lysates were detected by an Aβ ELISA kit as indicated in the protocol. […]
# [3] = test system: 5×FAD mice; assay: Distribution of neuronally expressed ApoE around amyloid plaques in 5×FAD mice (immunofluorescence); assay type: in vivo, mouse; conditions: lentiviral vectors
# Description: Mice were anesthetized with isoflurane and perfused with 4% PFA. Dissected mouse brains were fixed overnight in 4% PFA and cryoprotected overnight in 30% sucrose. A cryostat (Leica CM3050S) was used to obtain frozen brain slices ([…]) from fixed and cryoprotected mouse brains. Floating slices were washed 3 times with 1×PBS and then permeabilized with 0.5% Triton-X in 1×PBS for 30 minutes. After blocking with 5% BSA in 1×PBS at room temperature for 1 h, the slices were incubated overnight at 4° C. in 5% BSA (in 1×PBS) buffer comprising the primary antibody. Slices were washed 3 times with 1×PBS and incubated with secondary antibody diluted in 5% BSA (1×PBS) buffer for 1 hour at room temperature. Samples were then washed 3 times with 1×PBS and mounted with Prolong Gold Antifade Mountant (Life Technology).
# After being deeply anesthetized with isoflurane, mice (5 weeks old) were placed in a stereotaxic apparatus (RWD Instruments). The zero point (x, y, z, 0, 0, 0) is Bregma. Lentivirus (lentivirus-GFP, lentivirus-ApoE and lentivirus-ApoE-IRES-GFP) and AAV (AAV2/9-hSyn-EGFP-WPRE-pA and AAV2/9-hSyn-ApoECT; purchased from Shanghai Taitool Bioscience Co. Ltd.) were injected into the cortex (x, y, z, +/−1.6, 0, −1) or hippocampus (x, y, z, +/−1.5, −2, −1.5), injected 1 ul on each injection site. The mice were then returned to their cages for rehabilitation after surgery.
substance,measurement,setting,value
"ApoE2: human apolipoprotein E2, full-length 299 amino acid residues, SEQ ID NO: 12",production of Aβ40,[1],significantly reduces production of Aβ40; also recorded: is reduced; also recorded: significantly reduced Aβ40 levels
same,endogenously produced Aβ40,[2],can reduce endogenously produced Aβ40; also recorded: could reduce the endogenous Aβ40
same,accumulation around amyloid plaques,[3],a similar distribution pattern was detected around amyloid plaques
